Experimental findings from patent US20250206722A1, “SMALL MOLECULE INHIBITORS OF TEA DOMAIN FAMILY MEMBERS” (The Scripps Research Institute, priority 2022, published 2025) are described below.

In one assay the test system is NCI-H226 cells. The assay can be described thus: NCI-H226 proliferation assay (in house). The format is cell-based. The conditions noted are these: Homo sapiens, 120 h, 5 days, Cell TiterGlo, 20-point 1:2 dilution from 20 μM. The procedure: NCI-H226 Proliferation Assay
NCI-H226 cells were obtained from American Type Culture Collection (ATCC, CRL-5826) and cultured in RPMI 1640 with L-glutamine (Corning, 10-040-CV) supplemented with 10% fetal bovine serum (Gibco, 10438-026) and 1% penicillin-streptomycin (Gibco, 15070063). Cells were trypsinized, resuspended in growth medium, and diluted to a concentrated of 10,000 cells/mL. 500 cells, 50 μL of cell suspension, per well were then plated in a white 384-well plate (Corning) and incubated at 37° C., 5% CO2. After 24 hours incubation, 100 nL of test compounds in DMSO, 20-point 1:2 dilution starting from 20 μM (final concentration) in triplicate, were transferred to each well using an Agilent Bravo instrument outfitted with a pintool head. Cells were incubated at 37° C., 5% CO2 for 5 days followed by the addition of 30 μL of Cell TiterGlo (Promega; diluted 1:6 in water) to each well and luminescence values recorded using an EnVision plate reader. […]
(ATP-based viability assays read luminescence as a measure of living cells.)

Assay [1] has as its system transcriptional activity of TEADs. The assay can be described thus: TEAD reporter assay (MCF7 TEAD-LUC reporter cells). The format is cell-based. To be noted: Homo sapiens, 24 hours, BrightGlo luminescence. On the procedure: MCF7 TEAD-LUC reporter cells were obtained from BPS Bioscience, Inc. and cultured in DMEM medium (Corning, 10-013-CV) supplemented with 10% fetal bovine serum (Gibco, 10438-026), 1% penicillin-streptomycin (Gibco, 15070063), 1% non-essential amino acids (Gibco, 15070063), and 10 μg/mL insulin (Sigma, 10516). Cells were trypsinized, resuspended in growth medium, and diluted to a concentrated of 100,000 cells/mL. 5,000 cells, 50 μL of cell suspension, per well were then plated in a white 384-well plate (Corning) and incubated at 37° C., 5% CO2. After 24 hours incubation, 100 nL of test compounds in DMSO, 20-point 1:2 dilution starting from 20 μM (final concentration) in triplicate, were transferred to each well using an Agilent Bravo instrument outfitted with a pintool head. Cells were incubated at 37° C., 5% CO2 for 24 hours followed by the addition of 30 μL of BrightGlo (Promega; diluted 1:3 in water) to each well and luminescence values recorded using an EnVision plate reader.
The in vitro assay results of the compounds in the present invention were included in Table 1. The compounds described herein, inhibited the transcriptional activity of TEADs, as assessed by decreased luminance from a TEAD reporter cell line (MCF7 TEAD-LUC) in response to compound treatment.
A general note: In a reporter assay the amount or activity of a reporter protein is the signal.

Some results are limits rather than exact numbers.

For `C=C(F)C(=O)N1CCN(c2cccnc2Nc2ccc(C(F)(F)F)nc2)CC1` [Example 144, 2-fluoro-1-(4-(2-((6-(trifluoromethyl)pyridin-3-yl)amino)pyridin-3-yl)piperazin-1-yl)prop-2-en-1-one], the figures for the IC50 (in the assay with NCI-H226 cells; in assay [1]) were 0.031 µM and 0.0081 µM, respectively.
For `C=C(F)C(=O)N1CC=C(c2cccnc2Nc2ccc(C(F)(F)F)nc2)CC1` [Example 146, 2-fluoro-1-(2-((6-(trifluoromethyl)pyridin-3-yl)amino)-3′,6′-dihydro-[3,4′-bipyridin]-1′(2′H)-yl)prop-2-en-1-one], in that order: 0.158 µM and 0.0235 µM.
On the same counts, the results for `C=C(F)C(=O)N1CC=C(c2cccnc2Nc2ccc(OC(F)(F)F)nc2)CC1` [Example 148, 2-fluoro-1-(2-((6-(trifluoromethoxy)pyridin-3-yl)amino)-3′,6′-dihydro-[3,4′-bipyridin]-1′(2′H)-yl)prop-2-en-1-one] are 0.341 µM and 0.066 µM.
On to `C=CC(=O)N1CCC(c2cccnc2Nc2ccc(C(F)(F)F)nc2)CC1` [Example 149, 1-(4-(2-((6-(trifluoromethyl)pyridin-3-yl)amino)pyridin-3-yl)piperidin-1-yl)prop-2-en-1-one], for which the figures for the 50% inhibitory concentration (IC50) (in the assay with NCI-H226 cells; in assay [1]) were 2.71 µM and 0.164 µM, respectively.
On the same counts, the results for `C=C(F)C(=O)N1CCC(c2cccnc2Nc2ccc(C(F)(F)F)nc2)CC1` [Example 150, 2-fluoro-1-(4-(2-((6-(trifluoromethyl)pyridin-3-yl)amino)pyridin-3-yl)piperidin-1-yl)prop-2-en-1-one] are 39.5 µM and 4.43 µM.
On the same counts, the results for `C=CC(=O)N1CCC(c2cccnc2Nc2ccc(OC(F)(F)F)nc2)CC1` [Example 151, 1-(4-(2-((6-(trifluoromethoxy)pyridin-3-yl)amino)pyridin-3-yl)piperidin-1-yl)prop-2-en-1-one] are 1.05 µM and 0.188 µM.
For `C=C(F)C(=O)N1CCC(c2cccnc2Nc2ccc(OC(F)(F)F)nc2)CC1` [Example 152, 2-fluoro-1-(4-(2-((6-(trifluoromethoxy)pyridin-3-yl)amino)pyridin-3-yl)piperidin-1-yl)prop-2-en-1-one], in that order: 22.2 µM and 13.5 µM.
Take `C=C(F)C(=O)N1CCC(c2cccnc2Oc2ccc(C(F)(F)F)nc2)CC1` [Example 156, 2-fluoro-1-(4-(2-((6-(trifluoromethyl)pyridin-3-yl)oxy)pyridin-3-yl)piperidin-1-yl)prop-2-en-1-one]: the IC50 (as a rule, the concentration at which inhibition is half-maximal) in the assay on NCI-H226 cells was found to be 0.083 µM; in assay [1], 0.0137 µM.
For the molecule `C=C(F)C(=O)N1CC=C(c2cccnc2Oc2cnc(C(F)(F)F)nc2)CC1` [Example 158, 2-fluoro-1-(2-((2-(trifluoromethyl)pyrimidin-5-yl)oxy)-3′,6′-dihydro-[3,4′-bipyridin]-1′(2′H)-yl)prop-2-en-1-one], the IC50 with NCI-H226 cells is 0.027 µM; in assay [1] it was 0.0039 µM.
As to `C=C(F)C(=O)N1CCC(c2cccnc2Oc2cnc(C(F)(F)F)nc2)CC1` [Example 160, 2-fluoro-1-(4-(2-((2-(trifluoromethyl)pyrimidin-5-yl)oxy)pyridin-3-yl)piperidin-1-yl)prop-2-en-1-one], the concentration for half-maximal inhibition (IC50) in the assay with NCI-H226 cells turned out to be 2.94 µM; in assay [1], 1.65 µM.
On the same counts, the results for `C=CC(=O)N1CCN(c2ncccc2C(=O)N2CCC(F)(F)CC2)CC1` [Example 161, 1-(4-(3-(4,4-difluoropiperidine-1-carbonyl)pyridin-2-yl)piperazin-1-yl)prop-2-en-1-one] are above 20 µM and 1.73 µM.
For the molecule `C=CC(=O)N1CCN(c2ccccc2Nc2ccc(C(F)(F)F)cc2)CC1` [Example 162, 1-(4-(2-((4-(trifluoromethyl)phenyl)amino)phenyl)piperazin-1-yl)prop-2-en-1-one], the IC50 in the assay on NCI-H226 cells is 0.192 µM; in assay [1], 0.0011 µM.
In the case of `C=CC(=O)N1CCC(n2ccc(C(=O)c3ccc(C(F)(F)F)cc3)n2)CC1` [Example 163, 1-(4-(3-(4-(trifluoromethyl)benzoyl)-1H-pyrazol-1-yl)piperidin-1-yl)prop-2-en-1-one], the IC50 in the assay with NCI-H226 cells turned out to be 5 µM; in assay [1] it was 10 µM.
As to `C=CC(=O)N1CCC(n2nc(C(=O)c3ccc(C(F)(F)F)cc3)cc2C)CC1` [Example 165, 1-(4-(5-methyl-3-(4-(trifluoromethyl)benzoyl)-1H-pyrazol-1-yl)piperidin-1-yl)prop-2-en-1-one], the figures for the 50% inhibitory concentration (IC50) (in the assay on NCI-H226 cells; in assay [1]) were 5 µM and 0.0198 µM, respectively.
For `C=C(C)C(=O)N1CCN(c2nccnc2Nc2ccc(C(F)(F)F)nc2)CC1` [Example 177, 2-methyl-1-(4-(3-((6-(trifluoromethyl)pyridin-3-yl)amino)pyrazin-2-yl)piperazin-1-yl)prop-2-en-1-one], in that order: above 20 µM and above 20 µM.
On the same counts, the results for `C/C=C/C(=O)N1CCN(c2nccnc2Nc2ccc(C(F)(F)F)nc2)CC1` [Example 178, (E)-1-(4-(3-((6-(trifluoromethyl)pyridin-3-yl)amino)pyrazin-2-yl)piperazin-1-yl)but-2-en-1-one] are 0.884 µM and 0.0027 µM.
For `O=C(C(O)CO)N1CCN(c2nccnc2Nc2ccc(C(F)(F)F)cc2)CC1` (stereo not drawn) [Example 180, 2,3-dihydroxy-1-(4-(3-((4-(trifluoromethyl)phenyl)amino)pyrazin-2-yl)piperazin-1-yl)propan-1-one], in that order: above 20 µM and above 20 µM.
For the molecule `N#C/C=C\C(=O)N1CCN(c2nccnc2Nc2ccc(C(F)(F)F)cc2)CC1` [Example 182, (Z)-4-oxo-4-(4-(3-((4-(trifluoromethyl)phenyl)amino)pyrazin-2-yl)piperazin-1-yl)but-2-enenitrile], the IC50 in the assay on NCI-H226 cells was found to be 0.034 µM; in assay [1] it was 0.0012 µM.
On to `N#C/C=C/C(=O)N1CCN(c2nccnc2Nc2ccc(C(F)(F)F)nc2)CC1` [Example 183, (E)-4-oxo-4-(4-(3-((6-(trifluoromethyl)pyridin-3-yl)amino)pyrazin-2-yl)piperazin-1-yl)but-2-enenitrile], for which the concentration for half-maximal inhibition (IC50) in the assay on NCI-H226 cells came out at 0.422 µM; in assay [1], 0.0339 µM.
For `N#C/C=C\C(=O)N1CCN(c2nccnc2Nc2ccc(C(F)(F)F)nc2)CC1` [Example 184, (Z)-4-oxo-4-(4-(3-((6-(trifluoromethyl)pyridin-3-yl)amino)pyrazin-2-yl)piperazin-1-yl)but-2-enenitrile], in that order: 1.45 µM and 0.164 µM.
For `CN(C#N)C(=O)N1CCN(c2nccnc2Nc2ccc(C(F)(F)F)cc2)CC1` [Example 185, N-cyano-N-methyl-4-(3-((4-(trifluoromethyl)phenyl)amino)pyrazin-2-yl)piperazine-1-carboxamide], in that order: above 20 µM and above 20 µM.
For `C=C(CO)C(=O)N1CCN(c2nccnc2Nc2ccc(C(F)(F)F)cc2)CC1` [Example 186, 2-(hydroxymethyl)-1-(4-(3-((4-(trifluoromethyl)phenyl)amino)pyrazin-2-yl)piperazin-1-yl)prop-2-en-1-one], in that order: above 20 µM and above 20 µM.
For the molecule `C=C(COC(C)=O)C(=O)N1CCN(c2nccnc2Nc2ccc(C(F)(F)F)cc2)CC1` [Example 187, 2-(4-(3-((4-(trifluoromethyl)phenyl)amino)pyrazin-2-yl)piperazine-1-carbonyl)allyl acetate], the results for the half-maximal inhibitory concentration (IC50) (with NCI-H226 cells; in assay [1]) were 7.41 µM and 36.6 µM, respectively.
For `C=C(CF)C(=O)N1CCN(c2nccnc2Nc2ccc(C(F)(F)F)cc2)CC1` [Example 188, 2-(fluoromethyl)-1-(4-(3-((4-(trifluoromethyl)phenyl)amino)pyrazin-2-yl)piperazin-1-yl)prop-2-en-1-one], in that order: 0.013 µM and 0.0023 µM.
For `O=C(COC(F)(F)F)N1CCN(c2nccnc2Nc2ccc(C(F)(F)F)cc2)CC1` [Example 190, 2-(trifluoromethoxy)-1-(4-(3-((4-(trifluoromethyl)phenyl)amino)pyrazin-2-yl)piperazin-1-yl)ethan-1-one], the IC50 with NCI-H226 cells was 0.994 µM; in assay [1] it was 0.0127 µM.
On to `C#CCN(CCOc1nccnc1Nc1ccc(C(F)(F)F)cc1)C(=O)C=C` [Example 193, N-(prop-2-yn-1-yl)-N-(2-((3-((4-(trifluoromethyl)phenyl)amino)pyrazin-2-yl)oxy)ethyl)acrylamide], for which the half-inhibitory concentration (IC50) in the assay with NCI-H226 cells was above 20 µM; in assay [1], 0.203 µM.
Regarding `C=C(F)C(=O)NCC1CN(c2ccc(C(F)(F)F)nc2)c2nccnc2N1` (stereo not drawn) [Example 194], the results for the concentration for half-maximal inhibition (IC50) (in the assay on NCI-H226 cells; in assay [1]) were above 20 µM and 0.238 µM, respectively.
